The record followed here is the supplement of paper PMC10920090.

Assay [1] deals with MDA-MB-231. The assay can be described thus: drug sensitivity score (DSS), cytotoxicity CellTox Green; higher = more cytotoxic; extreme values may be limits of the assay. As to conditions: 72 h.
The test system of assay [2] is MDA-MB-231. The assay can be described thus: drug sensitivity score (DSS), cell viability CellTiter-Glo; higher = more sensitive; extreme values may be limits of the assay. The following applies: 72 h. In general terms: Cellular ATP, detected with luciferase, serves as a proxy for viable cell number.
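For drug sensitivity score (DSS), cytotoxicity CellTox Green in this document: DSS summarises each dose–response curve by combining IC50, EC50, maximal inhibition and efficacy across drug concentrations.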

For `C[C@]12O[C@H](C[C@]1(O)CO)n1c3ccccc3c3c4c(c5c6ccccc6n2c5c31)CNC4=O` [Lestaurtinib], the drug sensitivity score came to 0 DSS in the assay with MDA-MB-231 [1] (shRNA: shPPFIA1_1), 0 DSS in the assay with MDA-MB-231 [1] (shRNA: shScramble), 1.1 DSS with MDA-MB-231 [2] (shRNA: shPPFIA1_1) and 4.9 DSS with MDA-MB-231 [2] (shRNA: shScramble).
For the compound `N#Cc1ccc(C(c2ccc(C#N)cc2)n2cncn2)cc1` [Letrozole], the drug sensitivity score in the assay with MDA-MB-231 [1] (shRNA: shPPFIA1_1), with MDA-MB-231 [1] (shRNA: shScramble), with MDA-MB-231 [2] (shRNA: shPPFIA1_1) and in the assay on MDA-MB-231 [2] (shRNA: shScramble) was 0 DSS throughout.
`c1ccc([C@H]2CN3CCSC3=N2)cc1` [Levamisole]: the drug sensitivity score in the assay with MDA-MB-231 [1] (shRNA: shPPFIA1_1), in the assay with MDA-MB-231 [1] (shRNA: shScramble), in the assay on MDA-MB-231 [2] (shRNA: shPPFIA1_1) and with MDA-MB-231 [2] (shRNA: shScramble) was 0 DSS in each case.
For `Cc1ccc(F)c(NC(=O)Nc2ccc(-c3cccc4[nH]nc(N)c34)cc2)c1` [Linifanib], the drug sensitivity score in the assay with MDA-MB-231 [1] (shRNA: shPPFIA1_1), in the assay with MDA-MB-231 [1] (shRNA: shScramble), in the assay on MDA-MB-231 [2] (shRNA: shPPFIA1_1) and in the assay on MDA-MB-231 [2] (shRNA: shScramble) was 0 DSS each time.
As for `C[C@]1(O)C[C@@H](c2nc(-c3ccc4ccc(-c5ccccc5)nc4c3)c3c(N)nccn32)C1` [Linsitinib], the drug sensitivity score in the assay with MDA-MB-231 [1] (shRNA: shPPFIA1_1), in the assay on MDA-MB-231 [1] (shRNA: shScramble), in the assay with MDA-MB-231 [2] (shRNA: shPPFIA1_1) and in the assay on MDA-MB-231 [2] (shRNA: shScramble) was 0 DSS each time.
Consider `Nc1nc(OCc2cc(Br)cs2)c2[nH]cnc2n1` [Lomeguatrib], for which the drug sensitivity score in the assay with MDA-MB-231 [1] (shRNA: shPPFIA1_1) amounted to 0 DSS; in the assay on MDA-MB-231 [1] (shRNA: shScramble) it was 0 DSS; in the assay on MDA-MB-231 [2] (shRNA: shPPFIA1_1), 0.1 DSS; in the assay on MDA-MB-231 [2] (shRNA: shScramble), 0 DSS.
Regarding `O=NN(CCCl)C(=O)NC1CCCCC1` [Lomustine], the drug sensitivity score in the assay with MDA-MB-231 [1] (shRNA: shPPFIA1_1), in the assay on MDA-MB-231 [1] (shRNA: shScramble), in the assay with MDA-MB-231 [2] (shRNA: shPPFIA1_1) and in the assay on MDA-MB-231 [2] (shRNA: shScramble) was 0 DSS each time.
In the case of `NC(=O)N1CCC(CC(=O)N2CCC([C@H]3c4ncc(Br)cc4CCc4cc(Cl)cc(Br)c43)CC2)CC1` [Lonafarnib], the drug sensitivity score in the assay with MDA-MB-231 [1] (shRNA: shPPFIA1_1) came to 0 DSS; in the assay on MDA-MB-231 [1] (shRNA: shScramble), 0 DSS; in the assay with MDA-MB-231 [2] (shRNA: shPPFIA1_1), 2.4 DSS; in the assay on MDA-MB-231 [2] (shRNA: shScramble) it was 3.1 DSS.
Take `Cc1c(F)cc(C(=O)NC2CC2)cc1-c1ccc(C(=O)NCC(C)(C)C)cn1` [Losmapimod]: the drug sensitivity score was found to be 0 DSS with MDA-MB-231 [1] (shRNA: shPPFIA1_1), 0 DSS in the assay on MDA-MB-231 [1] (shRNA: shScramble), 1.7 DSS in the assay with MDA-MB-231 [2] (shRNA: shPPFIA1_1) and 0 DSS in the assay with MDA-MB-231 [2] (shRNA: shScramble).
Take `CC[C@H](C)C(=O)O[C@H]1C[C@@H](C)C=C2C=C[C@H](C)[C@H](CC[C@@H]3C[C@@H](O)CC(=O)O3)[C@H]21` [Lovastatin]: the drug sensitivity score in the assay with MDA-MB-231 [1] (shRNA: shPPFIA1_1), in the assay with MDA-MB-231 [1] (shRNA: shScramble), in the assay on MDA-MB-231 [2] (shRNA: shPPFIA1_1) and in the assay with MDA-MB-231 [2] (shRNA: shScramble) was 0 DSS in each case.
For the compound `CNC(=O)c1cccc2cc(Oc3ccnc4cc(OCC5(N)CC5)c(OC)cc34)ccc12` [Lucitanib], the drug sensitivity score with MDA-MB-231 [1] (shRNA: shPPFIA1_1) amounted to 0.3 DSS; in the assay on MDA-MB-231 [1] (shRNA: shScramble), 1.2 DSS; in the assay on MDA-MB-231 [2] (shRNA: shPPFIA1_1), 0 DSS; in the assay on MDA-MB-231 [2] (shRNA: shScramble) it was 0.7 DSS.
In the same order, the values of `CCNC(=O)c1noc(-c2cc(C(C)C)c(O)cc2O)c1-c1ccc(CN2CCOCC2)cc1` [Luminespib] are 0 DSS, 2 DSS, 9.5 DSS and 12.2 DSS.
`C=CCn1c(=O)c2cnc(Nc3ccc(N4CCN(C)CC4)cc3)nc2n1-c1cccc(C(C)(C)O)n1` [MK1775]: the drug sensitivity score with MDA-MB-231 [1] (shRNA: shPPFIA1_1) came out at 9.4 DSS; with MDA-MB-231 [1] (shRNA: shScramble) it was 7.6 DSS; with MDA-MB-231 [2] (shRNA: shPPFIA1_1) it was 5.1 DSS; in the assay on MDA-MB-231 [2] (shRNA: shScramble), 7.5 DSS.
In the same order, the values of `O=C(O)CC[C@H]1CC[C@@](c2cc(F)ccc2F)(S(=O)(=O)c2ccc(Cl)cc2)CC1` [MK-0752] are 0 DSS, 0 DSS, 0 DSS and 0.2 DSS.
For `NC1(c2ccc(-c3nc4ccn5c(=O)[nH]nc5c4cc3-c3ccccc3)cc2)CCC1` [MK-2206], the drug sensitivity score with MDA-MB-231 [1] (shRNA: shPPFIA1_1) came out at 0 DSS; in the assay with MDA-MB-231 [1] (shRNA: shScramble), 0 DSS; with MDA-MB-231 [2] (shRNA: shPPFIA1_1), 6.5 DSS; in the assay with MDA-MB-231 [2] (shRNA: shScramble) it was 6.8 DSS.
On to `CN(C[C@@H]1COCCO1)S(=O)(=O)Nc1ccc2ccc3ncc(-c4cnn(C)c4)cc3c(=O)c2c1` [MK-2461], for which the drug sensitivity score is 0 DSS in the assay with MDA-MB-231 [1] (shRNA: shPPFIA1_1), 0 DSS in the assay with MDA-MB-231 [1] (shRNA: shScramble), 0 DSS with MDA-MB-231 [2] (shRNA: shPPFIA1_1) and 3.6 DSS with MDA-MB-231 [2] (shRNA: shScramble).
Turning to `O=C(c1cccc(Cl)c1F)N1CCN(Cc2cccc(Nc3nccs3)n2)CC1` [MK-8745], the drug sensitivity score was found to be 0.5 DSS with MDA-MB-231 [1] (shRNA: shPPFIA1_1), 0.3 DSS in the assay with MDA-MB-231 [1] (shRNA: shScramble), 0.9 DSS in the assay with MDA-MB-231 [2] (shRNA: shPPFIA1_1) and 0.3 DSS in the assay on MDA-MB-231 [2] (shRNA: shScramble).
Regarding `Cn1cc(-c2cnn3c(N)c(Br)c([C@@H]4CCCNC4)nc23)cn1` [MK-8776], the drug sensitivity score with MDA-MB-231 [1] (shRNA: shPPFIA1_1) turned out to be 0 DSS; in the assay with MDA-MB-231 [1] (shRNA: shScramble), 0 DSS; in the assay with MDA-MB-231 [2] (shRNA: shPPFIA1_1) it was 0 DSS; in the assay with MDA-MB-231 [2] (shRNA: shScramble) it was 2.9 DSS.
As to `Cc1cnc(-c2ccccc2C(C)C)nc1NCc1ccc(-n2ccnn2)cc1` [ML323], the drug sensitivity score worked out at 0 DSS with MDA-MB-231 [1] (shRNA: shPPFIA1_1), 0 DSS in the assay on MDA-MB-231 [1] (shRNA: shScramble), 0 DSS with MDA-MB-231 [2] (shRNA: shPPFIA1_1) and 1.7 DSS in the assay on MDA-MB-231 [2] (shRNA: shScramble).
On to `CC(C)n1nc(-c2ccc3oc(N)nc3c2)c2c(N)ncnc21` [MLN-0128], for which the drug sensitivity score stood at 0 DSS in the assay with MDA-MB-231 [1] (shRNA: shPPFIA1_1), 0 DSS in the assay on MDA-MB-231 [1] (shRNA: shScramble), 0.2 DSS in the assay with MDA-MB-231 [2] (shRNA: shPPFIA1_1) and 5 DSS in the assay with MDA-MB-231 [2] (shRNA: shScramble).
With `O=C(O)c1ccc(Nc2ncc3c(n2)-c2ccc(Cl)cc2C(c2c(F)cccc2F)=NC3)cc1` [MLN-8054], the drug sensitivity score stood at 0 DSS with MDA-MB-231 [1] (shRNA: shPPFIA1_1), 0 DSS with MDA-MB-231 [1] (shRNA: shScramble), 0.1 DSS in the assay with MDA-MB-231 [2] (shRNA: shPPFIA1_1) and 2.2 DSS in the assay on MDA-MB-231 [2] (shRNA: shScramble).
For `O=C(Nc1cccc(NC(=O)c2cccc(O)c2O)c1)c1cccc(O)c1O` [MST-312], the drug sensitivity score in the assay with MDA-MB-231 [1] (shRNA: shPPFIA1_1) came to 0 DSS; in the assay on MDA-MB-231 [1] (shRNA: shScramble), 0 DSS; with MDA-MB-231 [2] (shRNA: shPPFIA1_1) it was 8.6 DSS; in the assay with MDA-MB-231 [2] (shRNA: shScramble), 7.6 DSS.
For `CNC(=O)[C@@H](NC(=O)[C@H](CC(C)C)[C@H](O)C(=O)NO)C(C)(C)C` [Marimastat], the drug sensitivity score in the assay on MDA-MB-231 [1] (shRNA: shPPFIA1_1) worked out at 0 DSS; in the assay with MDA-MB-231 [1] (shRNA: shScramble) it was 0 DSS; in the assay with MDA-MB-231 [2] (shRNA: shPPFIA1_1), 0.2 DSS; in the assay with MDA-MB-231 [2] (shRNA: shScramble), 0 DSS.
Consider `Cc1ccc(NC(=O)c2ccc(CN3CCN(C)CC3)cc2)cc1Nc1nc(-c2cccnc2)cs1` [Masitinib], for which the drug sensitivity score was 0.2 DSS in the assay on MDA-MB-231 [1] (shRNA: shPPFIA1_1), 0.1 DSS in the assay with MDA-MB-231 [1] (shRNA: shScramble), 0.2 DSS with MDA-MB-231 [2] (shRNA: shPPFIA1_1) and 2.9 DSS with MDA-MB-231 [2] (shRNA: shScramble).
Regarding `CC(=O)O[C@]1(C(C)=O)CC[C@H]2[C@@H]3C=C(C)C4=CC(=O)CC[C@]4(C)[C@H]3CC[C@@]21C` [Megestrol acetate], the drug sensitivity score in the assay on MDA-MB-231 [1] (shRNA: shPPFIA1_1), with MDA-MB-231 [1] (shRNA: shScramble), in the assay with MDA-MB-231 [2] (shRNA: shPPFIA1_1) and in the assay on MDA-MB-231 [2] (shRNA: shScramble) was 0 DSS in each case.
As for `N[C@@H](Cc1ccc(N(CCCl)CCCl)cc1)C(=O)O` [Melphalan], the drug sensitivity score amounted to 0 DSS in the assay on MDA-MB-231 [1] (shRNA: shPPFIA1_1), 0 DSS in the assay with MDA-MB-231 [1] (shRNA: shScramble), 0 DSS in the assay on MDA-MB-231 [2] (shRNA: shPPFIA1_1) and 0.4 DSS in the assay with MDA-MB-231 [2] (shRNA: shScramble).
Consider `CCN(CC)CCCC(C)Nc1c2ccc(Cl)cc2nc2ccc(OC)cc12` (stereo not drawn) [Mepacrine], for which the drug sensitivity score in the assay on MDA-MB-231 [1] (shRNA: shPPFIA1_1) is 18.5 DSS; in the assay with MDA-MB-231 [1] (shRNA: shScramble) it was 18.6 DSS; in the assay on MDA-MB-231 [2] (shRNA: shPPFIA1_1) it was 18.6 DSS; in the assay on MDA-MB-231 [2] (shRNA: shScramble), 21.1 DSS.
